Measurements from paper PMC10579241, “Impact of trifluoromethyl and sulfonyl groups on the biological activity of novel aryl-urea derivatives: synthesis, in-vitro, in-silico and SAR studies” (Scientific Reports, 2023).
Marks after values point to notes of the source that are not given here.

Experiments:
[1] = system: hepatocellular carcinoma cell line (HePG2); assay: cells; type: cell-based; settings: Homo sapiens, 48 h; for mortality at 100 µg/mL: 100 μg/mL
skin cancer (A431) = assay: cells; type: cell-based; settings: Homo sapiens, A-431, 100 μg/mL, 48 h
prostate cancer (PC3) = assay: cells; type: cell-based; settings: Homo sapiens, 48 h, 100 μg/mL
[2] = system: pancreatic cancer cell line (PACA2); assay: cells; type: cell-based; settings: Homo sapiens, PaCa-2, 48 h; for mortality at 100 µg/mL: 100 μg/mL
Escherichia coli = assay: Agar well diffusion, E. coli; type: cell-based
[3] = system: osteosarcoma cell line (HOS); assay: cells; type: cell-based; settings: Homo sapiens, 48 h; for mortality at 100 µg/mL: 100 μg/mL; for IC50: MTT
[4] = system: human lung carcinoma (A549); assay: cells; type: cell-based; settings: A549, 48 h, 100 μg/mL
Candida albicans = assay: Agar well diffusion, C. albicans; type: cell-based
colon cancer (HCT116) = assay: cells; type: cell-based; settings: Homo sapiens, HCT-116, 48 h, 100 μg/mL
Bacillus mycoides = assay: microbe, parasite or virus in culture; type: cell-based
in vitro = type: cell-based; settings: human, BJ1 normal skin fibroblast cells, 100 μg/mL
CDKN2A = assay: qRT-PCR, CDKN2A in PACA2 cells; type: cell-based, human; settings: versus negative untreated sample
PACA2 [5] = assay: DNA fragmentation assay, PACA2; type: cell-based, human
PALB2 = assay: qRT-PCR, PALB2 in PACA2 cells; type: cell-based, human; settings: versus negative untreated sample
PACA2 [6] = assay: DNA damage, comet assay, PACA2; type: cell-based, human
[7] = system: normal skin fibroblast cell line (BJ1); assay: cells; type: cell-based; settings: Homo sapiens, Skin fibroblast, MTT, 48 h
[8] = Escherichia coli, read-out: Inhibition zones diameter
[9] = Candida albicans, read-out: Inhibition zones diameter
[10] = Bacillus mycoides, read-out: Inhibition zones diameter

| Molecule | mortality at 100 µg/mL [1] [%] | mortality at 100 µg/mL (skin cancer (A431)) [%] | mortality at 100 µg/mL (prostate cancer (PC3)) [%] | mortality at 100 µg/mL [2] [%] | zone of inhibition at 10000 µg/mL (Escherichia coli; [8]) [mm] | mortality at 100 µg/mL [3] [%] | mortality at 100 µg/mL [4] [%] | zone of inhibition at 10000 µg/mL (Candida albicans; [9]) [mm] | mortality at 100 µg/mL (colon cancer (HCT116)) [%] | zone of inhibition at 10000 µg/mL (Bacillus mycoides; [10]) [mm] | IC50 [3] [µM] | also measured |
| --- | --- | --- | --- | --- | --- | --- | --- | --- | --- | --- | --- | --- |
| COc1cc(NC(=O)Nc2ccc(C)cc2)cc(OC)c1 [Compound 16, 1-[3,5-Dimethoxyphenyl]-3-(p-tolyl)urea] | 34.2 ± 0.13 | 40.3 ± 1.22 | 44.6 ± 0.25 | > 50 | 16 ± 0.35 | > 50 | 35.9 ± 0.7 | 16 ± 0.95 | 5.9 ± 0.78 | 16 ± 0.97 | – | – |
| Cc1ccc(NC(=O)Nc2ccc(C(F)(F)F)cc2)cc1 [Compound 13, 1-(p-Tolyl)-3-[4-(trifluoromethyl)phenyl]urea] | 100 | 1.3 ± 0.78 | 47.2 ± 0.63 | 35.8 ± 0.91 | 18 ± 1.84 | ~74.3 | 3.5 ± 0.55 | 18 ± 0.66 | 11.5 ± 1.19 | 16 ± 0.41 | – | IC50 ([1]; MTT): 121.7 ± 0.85 µM; mortality at 48 h, 100 µg/mL (in vitro): 84.2 ± 1.61% |
| Cc1ccc(NC(=O)Nc2ccc(OC(F)(F)F)cc2)cc1 [Compound 14, 1-(p-Tolyl)-3-[4-(trifluoromethoxy)phenyl]urea] | 65.3 ± 1.44 | 2.3 ± 0.66 | 45.3 ± 1.28 | 47.2 ± 1.47 | 17 ± 0.81 | 100 | 38.5 ± 1.41 | 17 ± 0.27 | 5.6 ± 0.47 | 15 ± 0.25 | 61.6 ± 0.81 | – |
| Colstin [reference compound] | – | – | – | – | – | – | – | – | – | – | – | Inhibition zones diameter (Escherichia coli; E. coli, reference antibiotic 10 mcg): 0 mm; Inhibition zones diameter (Candida albicans; C. albicans, reference antibiotic 10 mcg): 0 mm; Inhibition zones diameter (Bacillus mycoides): 0 mm |
| Cc1ccc(NC(=O)Nc2cc(C(F)(F)F)cc(C(F)(F)F)c2)cc1 [Compound 15, 1-[3,5-Bis(trifluoromethyl)phenyl]-3-(p-tolyl)urea] | – | – | > 75 | > 75 | 24 ± 0.68 | – | > 50 | 24 ± 1.22 | 49.6 ± 1.23 | 23 ± 0.35 | 37.3 ± 0.37 | CDKN2A gene expression level (CDKN2A): significantly reduced; IC50 ([2]; MTT): 82.5 ± 0.21 µM; Change (DNA fragmentation versus untreated cells) (PACA2 [5]): 20.20; DNA fragmentation % M ± SEM (PACA2 [5]; IC50 concentration, 24 h): 32.3 ± 0.74^ab %; Inhibition (PACA2 [5]; doxorubicin = 0.0): 12.22; PALB2 gene expression level (PALB2): significantly reduced; DNA damaged cells % (mean ± SEM) (PACA2 [6]): 21.00 ± 1.29^a %; Class 0 (no tail), number of cells (PACA2 [6]; of 400 cells analyzed): 316; Class 1 (tail length < diameter of nucleus), number of cells (PACA2 [6]; of 400 cells analyzed): 31; Class 2 (tail length between 1 and 2 × the diameter of nucleus), number of cells (PACA2 [6]; of 400 cells analyzed): 25; Class 3 (tail length > 2 × the diameter of nucleus), number of cells (PACA2 [6]; of 400 cells analyzed): 28; No. of cells, Comets (PACA2 [6]; of 400 cells analyzed): 84; IC50 [7]: 94.4 ± 0.71 µM |
| CC1(C)S[C@@H]2[C@H](NC(=O)[C@H](N)c3ccccc3)C(=O)N2[C@H]1C(=O)O [Ampicillin, reference compound] | – | – | – | – | – | – | – | – | – | – | – | zone of inhibition at 10 µg/disc (Escherichia coli; Escherichia coli, E. coli, reference antibiotic 10 mcg, read-out: Inhibition zones diameter): 20 ± 1.05 mm; zone of inhibition at 10 µg/disc (Candida albicans; Candida albicans, C. albicans, reference antibiotic 10 mcg, read-out: Inhibition zones diameter): 14 ± 0.25 mm; zone of inhibition at 10 µg/disc (Bacillus mycoides; [10]): 12 ± 0.93 mm |
